The text below walks through data of ChEMBL document CHEMBL1201862, “PubChem BioAssay data set” (2004).

Structures are written as SMILES.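 Exposure lasted 48 hours, with cells grown in 96-well plates and compounds tested at five concentrations. At the GI50, growth is halved.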 The source made the active and inactive calls. No stated cut-off is given here; in the data, active = GI50 up to about 1.1 µM and inactive = higher. Some results are limits rather than exact numbers.

Among the test systems are K562; SK-MEL-5; PC-3; SNB-75; OVCAR-5; NCI/ADR-RES; HCT-15; SF-539; A549; UO-31; EKVX; MDA-MB-231; A498; UACC-257; RPMI-8226; NCI-H23; MCF7; SK-OV-3; Malme-3M; DU-145.
What all share (experiment): NCI-60 cell line screen, 48 h

On to `O=C(O)COc1cc(-c2ccccc2)nc2ccccc12`, for which the GI50 in the assay with K562 was 36.8 µM (inactive); in the assay with SK-MEL-5, 33.9 µM (inactive); in the assay on PC-3, > 100 µM (inactive); in the assay with SNB-75, 41.5 µM (inactive); in the assay on OVCAR-5, > 100 µM (inactive); in the assay with NCI/ADR-RES it was 52.1 µM (inactive). Further, the GI50 is 36.9 µM in the assay on HCT-15; 70.8 µM (inactive) with SF-539; 66.4 µM (inactive) in the assay on A549; 61.4 µM (inactive) with UO-31; > 100 µM (inactive) in the assay on EKVX; > 100 µM (inactive) in the assay with MDA-MB-231. The GI50 with A498 is 65.3 µM (inactive); with UACC-257, > 100 µM (inactive); in the assay with RPMI-8226, 86.7 µM (inactive); in the assay with NCI-H23, 77.6 µM (inactive); in the assay on MCF7, 49 µM (inactive); in the assay with SK-OV-3 it was 73.3 µM (inactive). Moreover, the GI50 with Malme-3M and in the assay on DU-145 was > 100 µM (inactive) in each case.

As to `CCOP(=O)(OCC)C1=C(c2ccccc2)OC(N)=C(C#N)C1c1ccc(Cl)cc1` (stereo not given), the GI50 with K562, with SK-MEL-5, in the assay on PC-3, in the assay on SNB-75, in the assay with OVCAR-5 and with NCI/ADR-RES was > 100 µM (inactive) each time. Further, the GI50 is over 100 µM with HCT-15; 66.1 µM (inactive) in the assay with SF-539; > 100 µM (inactive) in the assay on A549; > 100 µM (inactive) in the assay on UO-31; > 100 µM (inactive) with EKVX; > 100 µM (inactive) in the assay on MDA-MB-231. The GI50 with A498, in the assay with UACC-257, in the assay with RPMI-8226, in the assay on NCI-H23, in the assay on MCF7 and in the assay on SK-OV-3 was > 100 µM (inactive) throughout. Also, the GI50 in the assay on Malme-3M and with DU-145 was > 100 µM (inactive) in each case.

Take `CN1C(=O)CC2(C)c3cc(O)ccc3N(C)C12` (stereo not given): the GI50 with K562 is 18.5 µM (inactive); in the assay with SK-MEL-5, 22.5 µM (inactive); in the assay on PC-3 it was 41.5 µM (inactive); in the assay on SNB-75, 30.8 µM (inactive); with OVCAR-5 it was 42.5 µM (inactive); with NCI/ADR-RES, 39.4 µM (inactive). For the same compound, the GI50 is 36 µM in the assay with HCT-15; 64.1 µM (inactive) in the assay on SF-539; > 68.5 µM (inactive) with A549; > 71.8 µM (inactive) in the assay on UO-31; 37.8 µM (inactive) in the assay on EKVX; 19.5 µM (inactive) in the assay with MDA-MB-231. In addition, the GI50 was 43 µM (inactive) in the assay on A498; > 68.2 µM (inactive) in the assay on UACC-257; 31 µM (inactive) in the assay on RPMI-8226; 42.3 µM (inactive) in the assay with NCI-H23; 18.6 µM (inactive) in the assay on MCF7; > 95.3 µM (inactive) in the assay on SK-OV-3. Besides, the GI50 in the assay with Malme-3M was 54.5 µM (inactive); in the assay with DU-145, > 40.4 µM (inactive).

Consider `COc1cc2nc(-c3cccs3)nc(N3C(c4ccc(O)cc4)=NNC(=O)c4ccccc43)c2cc1OC`, for which the GI50 in the assay with K562 was 17.5 µM (inactive); in the assay with SK-MEL-5, 46.8 µM (inactive); in the assay with PC-3, 25.6 µM (inactive); in the assay with SNB-75, 24 µM (inactive); with OVCAR-5, 28.8 µM (inactive); in the assay on NCI/ADR-RES, 17.7 µM (inactive). Besides, the GI50 with HCT-15 was 32 µM; in the assay with SF-539, < 0.01 µM (active); in the assay on A549, 55.6 µM (inactive); in the assay on UO-31, 19 µM (inactive); in the assay with EKVX, 3.9 µM (inactive); with MDA-MB-231, 18.9 µM (inactive). Also, the GI50 with A498 was > 100 µM (inactive); in the assay with UACC-257, 28.4 µM (inactive); with RPMI-8226, 15 µM (inactive); in the assay with NCI-H23, 27.5 µM (inactive); with MCF7, 36.7 µM (inactive); in the assay with SK-OV-3 it was 38 µM (inactive). Further, the GI50 in the assay on Malme-3M was 21.1 µM (inactive); with DU-145 it was 4.54 µM (inactive).

On to `NC1=NCN(C2OC(CO)C(O)C2O)C(=O)N1` (stereo not given), for which the GI50 is 2.28 µM (inactive) in the assay on K562; 42 µM (inactive) in the assay on SK-MEL-5; 342 µM (inactive) in the assay with PC-3; 22.5 µM (inactive) in the assay on SNB-75; 183 µM (inactive) in the assay on OVCAR-5; 705 µM (inactive) in the assay with NCI/ADR-RES. For the same compound, the GI50 with HCT-15 was 4.5 µM; in the assay with SF-539 it was 24.3 µM (inactive); in the assay with A549 it was 18.5 µM (inactive); in the assay with UO-31, 145 µM (inactive); with EKVX, 509 µM (inactive); in the assay with MDA-MB-231 it was 38.5 µM (inactive). The GI50 in the assay with A498 was 6.85 µM (inactive); with UACC-257, 49 µM (inactive); in the assay on RPMI-8226, 1.8 µM (inactive); in the assay with NCI-H23, > 88.3 µM (inactive); with MCF7, 9.84 µM (inactive); with SK-OV-3, 126 µM (inactive). Also, the figures for the GI50 with Malme-3M and in the assay with DU-145 were 10.9 µM (inactive) and 148 µM (inactive), respectively.

For the compound `CC(=O)N(C)c1ccc(/N=C/N(C)C)cc1`, the GI50 with K562, in the assay with SK-MEL-5, in the assay with PC-3, in the assay on SNB-75, in the assay on OVCAR-5 and with NCI/ADR-RES was > 100 µM (inactive) in each case. In addition, the GI50 is over 100 µM in the assay on HCT-15; > 100 µM (inactive) with SF-539; > 100 µM (inactive) in the assay with A549; > 100 µM (inactive) with UO-31; > 100 µM (inactive) with EKVX; > 100 µM (inactive) with MDA-MB-231. In addition, the GI50 was > 100 µM (inactive) in the assay on A498; > 100 µM (inactive) with UACC-257; > 100 µM (inactive) with RPMI-8226; > 100 µM (inactive) with NCI-H23; 82.4 µM (inactive) in the assay with MCF7; > 100 µM (inactive) in the assay on SK-OV-3. Also, the GI50 with Malme-3M and in the assay with DU-145 was > 100 µM (inactive) in each case.

Regarding `CC(=O)Nc1ccc2c3c(cc(O)c2c1)N(C(=O)CCCC(=O)Nc1ccc2c4c(cc(O)c2c1)N(C(=O)OC(C)(C)C)CC4CCl)CC3CCl` (stereo not given), the GI50 in the assay on K562 was 1.22 µM (inactive); in the assay on SK-MEL-5, 1.1 µM (active); in the assay on PC-3, 1.27 µM (inactive); in the assay with SNB-75 it was 1.99 µM (inactive); with OVCAR-5 it was 2.3 µM (inactive); in the assay with NCI/ADR-RES, > 50 µM (inactive). Besides, the GI50 in the assay with HCT-15 is over 50 µM; with SF-539 it was 1.42 µM (inactive); in the assay with A549, 9.4 µM (inactive); in the assay on UO-31, > 38.5 µM (inactive); in the assay on EKVX, 5.24 µM (inactive); in the assay with MDA-MB-231 it was 1.47 µM (inactive). The GI50 with A498 was 1.02 µM (active); in the assay on UACC-257, 1.04 µM (active); with RPMI-8226, 5.69 µM (inactive); in the assay with NCI-H23, 1.42 µM (inactive); with MCF7, 0.225 µM (active); in the assay on SK-OV-3 it was 1.62 µM (inactive). The results for the GI50 in the assay on Malme-3M and with DU-145 were 0.78 µM (active) and 0.769 µM (active), respectively.

For `CC1(C)OCC(C2CCC3(C)C4=CCC5C(C)(C)C(O)CCC5(C)C4CCC23C)CC(O)C1O` (stereo not given), the GI50 is 4.22 µM (inactive) in the assay with K562; 15.1 µM (inactive) in the assay on SK-MEL-5; 11.3 µM (inactive) in the assay on PC-3; 15.1 µM (inactive) with SNB-75; 19.1 µM (inactive) in the assay on OVCAR-5; 20.3 µM (inactive) in the assay on NCI/ADR-RES. The GI50 in the assay on HCT-15 was 15.8 µM; in the assay with SF-539, 18.8 µM (inactive); in the assay with A549 it was 16.5 µM (inactive); in the assay on UO-31, 16.7 µM (inactive); in the assay with EKVX, 14.6 µM (inactive); with MDA-MB-231, 18.1 µM (inactive). Moreover, the GI50 was 24.7 µM (inactive) with A498; 12.2 µM (inactive) in the assay on UACC-257; 6.75 µM (inactive) in the assay on RPMI-8226; 17.8 µM (inactive) with NCI-H23; 20.7 µM (inactive) in the assay with MCF7; 18.3 µM (inactive) in the assay with SK-OV-3. Also, the GI50 is 15.6 µM (inactive) in the assay on Malme-3M and 14.7 µM (inactive) in the assay with DU-145.

`Cc1nc2c(n1-c1ccc(Br)cc1)C(=O)c1ccccc1C2=O`: the GI50 was 1.33 µM (inactive) with K562; 12.6 µM (inactive) with SK-MEL-5; 1.26 µM (inactive) with PC-3; 20 µM (inactive) with SNB-75; > 100 µM (inactive) in the assay on OVCAR-5; 5.78 µM (inactive) in the assay on NCI/ADR-RES. The GI50 with HCT-15 is 1.04 µM; with SF-539, 7.66 µM (inactive); in the assay with A549, 6.93 µM (inactive); in the assay on UO-31 it was 7.76 µM (inactive); in the assay on EKVX, > 54.6 µM (inactive); with MDA-MB-231, 0.406 µM (active). Besides, the GI50 is > 49.8 µM (inactive) in the assay on A498; 19.5 µM (inactive) in the assay with UACC-257; 1.43 µM (inactive) with RPMI-8226; 34 µM (inactive) in the assay with NCI-H23; 3.62 µM (inactive) in the assay with MCF7; 42.2 µM (inactive) in the assay with SK-OV-3. The GI50 in the assay on Malme-3M was 9.95 µM (inactive); in the assay on DU-145, 58.2 µM (inactive).
